Tests used:
Assay type in all cases: in vivo
[1] = tested on: female imagines of Kanzawa spider mite (Tetranychus kanzawai kishida) which had acquired a strong resistance to chlorfenapyr; test: Miticidal effect on female imagines of chlorfenapyr-resistant Kanzawa spider mite, leaf disk spray test
Method: In this experiment, the miticidal effect against female imagines (adults) of Kanzawa spider mite (Tetranychus kanzawai kishida) which are registrant to chlorfenapyr is evaluated.
Round leaf disks (2 cm diameter) are cut out of a first leaf of kidney bean by a leaf punch and 4 sheets of the disks are placed on wet sanitary cotton in a plastic cup (8 cm diameter). On each leaf disk, 4 female imagines of Kanzawa spider mite (Tetranychus kanzawai kishida) which had acquired a strong resistance to chlorfenapyr are inoculated.
After the inoculation, chlorfenapyr and a compound(s) selected from group A are dispersed in water containing 200 ppm of an extender (Sorpol 3005X) and diluted such that a predetermined concentration of active ingredient is obtained. Each plastic cup is sprayed with 3.5 ml of a test solution with a rotary spray tower (Mizuho Scientific Co., Ltd.) and stored in a constant temperature chamber held at 25±1° C. (32 individuals are tested per concentration, 4−5 concentrations are evaluated per formulation, and 2 performances were repeated). Two days after treatment, the number of living and dead female imagines of Kanzawa spider mite (Tetranychus kanzawai kishida) which had acquired a strong resistance to chlorfenapyr is counted and the mortality (%) is calculated according the formula shown hereinbelow.
A co-toxicity coefficient is calculated by applying Sun and Johnson's formula (J. Econ. Ent., Vol 53, p. 887, […]) which is generally used to determine the degree of synergistic activity.
Co-toxicity coefficient=T^c [formula]
For T^c values greater than 100, the greater value indicates a stronger synergistic action. For a T^c value equal to 100, an additive action is indicated. For T^c values less than 100, the lesser value indicates a greater antagonistic action. A more detailed description of the calculation of the co-toxicity coefficient using the above-referenced Sun and Johnson formula follows.
The LC50 values of Test Compound A alone and Test Compound B alone and the LC50 value of the (A+B) mixture M is determined.
Actual toxicity index of mixture M=M^ti
Each LC50 value of effective ingredient A and effective ingredient B and the LC50 value of the mixture of A+B are used to determine the actual toxicity index as shown in the equation below. [formula]
Theoretical toxicity index of mixture M=Th.M^ti
Th.M^ti=(Toxicity index of A×%A in M+Toxicity index of B×%B in M)
Toxicity index of B=B^ti [formula]

[2] = tested on: female imagines of Kanzawa spider mite (Tetranychus kanzawai kishida) which had acquired a strong resistance to chlorfenapyr; test: as above; conditions: resistant strain obtained by long artificial selection in the laboratory, compared with susceptible strain
[3] = tested on: susceptible strain of Kanzawa spider mite; test: LC50 against susceptible strain of Kanzawa spider mite
Text: By comparison, the LC50 value for chlorfenapyr against a susceptible strain of Kanzawa spider mite is about 5 ppm.

[4] = single test compound, chlorfenapyr-resistant strain, female imago, mortality two days after treatment, probit analysis
[5] = single test compound, chlorfenapyr-resistant strain

Compound	LC50 [1, 4] [ppm]	miticidal effect (in words) [1, 5]	resistance to chlorfenapyr of the resistant strain [2] [fold]	LC50 [3]	LC50 ([1]; in vivo) [ppm]
C/C1=C\C[C@@H]2C[C@@H](C[C@]3(CC[C@H](C)[C@@H](C)O3)O2)OC(=O)[C@@H]2CC[C@@H](O)[C@H]3OC/C(=C\C=C\[C@H](C)C1)[C@]32O (mixture of isomers) [Milbemectin]	0.28	–	–	–	–
Cc1ccc(N=CN(C)C=Nc2ccc(C)cc2C)c(C)c1 [Amitraz, 3-methyl-1,5-bis(2,4-xylyl)-1,3,5-triazapenta-1,4-diene]	200	low effects	–	–	–
CCC(C)c1cc([N+](=O)[O-])cc([N+](=O)[O-])c1OC(=O)C=C(C)C (stereo not drawn) [Binapacryl, 2,4-dinitro-6-sec-butylphenyldimethyl-acrylate]	180	–	–	–	–
CCOCn1c(-c2ccc(Cl)cc2)c(C#N)c(Br)c1C(F)(F)F [Chlorfenapyr, 4-bromo-2-(4-chloropheny)-1-(ethoxymethyl)-5-(trifuloromethyl)pyrrole-3-carbonitrile]	1500	–	~300	about 5 ppm	–
CN(C)C(=O)SCCCCOc1ccccc1 [Fenothiocarb, S-4-phenoxybutyl-dimethylthiocarbamate]	1000	–	–	–	–
OC(c1ccc(Cl)cc1)(c1ccc(Cl)cc1)C(Cl)(Cl)Cl [Kelthane (Dicofol)]	32	high miticidal effect	–	–	–
CC(C)OC(=O)C(O)(c1ccc(Br)cc1)c1ccc(Br)cc1 [Phenisobromalate, isopropyl 4,4′-dibromobenzilate]	280	low effects	–	–	–
CCOCCc1ccc(OCCNc2ncnc(CC)c2Cl)c(C)c1C [Pyrimidifen, 5-chloro-N-{2-[2,3-dimethyl-4-(2-ethoxyethyl)phenoxy]ethyl}-6-ethyl-4-pyrimidinamine]	–	high miticidal effect	–	–	10
O=S(=O)(c1ccc(Cl)cc1)c1cc(Cl)c(Cl)cc1Cl [Tetradifon, 2,4,5,4′-tetrachlorodiphenyisulfone]	4900	low miticidal effect	–	–	–
dinitromethylheptylphenyl crotonate [DPC]	630	low effects	–	–	–

Reference: patent US6337345B1, “Insecticidal or miticidal combinations containing chlorfenapyr” (American Cyanamid Co., priority 1996, dated 2002)
